{
  "source": "patent US11846640B2",
  "about": "“Identification of anticoagulants in a sample” (DSM IP Assets B.V., priority 2013, dated 2023)",
  "type_in_all_cases": "biochemical, human",
  "key": {"normal plasma pool (NPP) [1]": {"test_system": "normal plasma pool (NPP)", "test": "PiCT Method 4 (inverted PiCT) clotting time on ACL TOP 500", "settings": "for Clotting time: Table 10B, PiCT Method 4, NPP spiked, mean n = 4; for PiCT ® method 4 clotting time: Table 11", "method": "The present invention is in one aspect directed to the use of a clotting assay, in particular the PiCT® testing method on a detection system such as e.g. the ACL TOP® 500 analyzer and to a method to quantitatively and qualitatively detect anticoagulants in a sample, e.g. blood or plasma. […] PiCT® Method 4 or PiCT® inverted includes that first the start reagent is added to the sample, the mixture allowed to proceed according to the manufacturer's instructions followed by addition of the activator, i.e. a reversed order compared to standard PiCT® (see above). PiCT® Method 1 to 4 is described in more detail in the Examples.\n(§1) The 4 methods (see above) are in more detail described in the Examples. Specific pipetting schemes were designed using NPP spiked with incremental amounts of anticoagulants in order to achieve high reproducibility of the test system, which is required for drug identification including use in a POC system. With regards to the ACL TOP® 500 analyzer, PiCT® Method 1 to 4 has been established as follows: • PiCT® Method 1: 50 μl of plasma is incubated for 180 sec with 50 μl of reagent 1 and afterwards 50 μl of reagent 2 is added and the time to clot is recorded on the ACL TOP® 500 (i.e. pipetting scheme: P-50/A-50/I-180/50-S).\nAfter calculation of the RR for the different kind of anticoagulants (see Example 1) samples of NPP spiked with incremental amounts of anticoagulants were used in the ACL TOP® 500, wherein 45 μl start reagent was incubated with 140 μl plasma for 60 sec. The time to clot was recorded after addition of 40 μl of activator (i.e. so-called inverted PiCT®)."}, "plasma samples [2]": {"test_system": "plasma samples", "test": "PT (HemosIL PT recombiplastin) clotting time", "settings": "Table 6, spiked plasma, mean", "method": "(§2) In order to address the above question, i.e. to determine the nature of an anticoagulant in a sample, a combination of several methods has to be performed, including PiCT® Method 1, PiCT® Method 4, aPTT (HemosIL™ aPTT SP), PT (HemosIL™ PT recombiplastin), and sometimes even a modified PiCT® Method 1 wherein polybrene has been added. In order to simulate this, plasma samples spiked with different levels of anticoagulants were analyzed using the ACL TOP® 500 analyzer."}, "normal plasma pool (NPP) [3]": {"test_system": "normal plasma pool (NPP)", "test": "PiCT Method 1 (standard Pefakit PiCT) clotting time on ACL TOP 500", "settings": "for Clotting time with PiCT ® Method 1: spiked plasma; for Clotting time: Table 7C, PiCT Method 1, NPP spiked, mean n = 4", "from_the_text": "As described by Korte et al. (supra) or in EP 1240528, Pefakit® PiCT® is a functional clotting assay based on the direct activation of the prothrombinase complex which results in a fine-tuned analytical output directly proportional to the final anticoagulant activity of the factor Xa or factor IIa inhibitors (see Calatzis, Haemostasis 2000, 30:172-174). To perform the Pefakit® PiCT® test (referred to herein as standard “PiCT® or PiCT® Method 1), a defined amount of PiCT® activator (=reagent 1) is added to a sample, such as, e.g., plasma. The mixture is allowed to proceed at 37° C. for a specific period of time. The Start reagent (=reagent 2) is then added to the mixture and the time required for clot formation is measured. The presence of anticoagulants in the samples dose-dependently prolongs the time to clot. Pefakit® PiCT® is adapted to laboratory instruments based on mechanical or optical detection systems, including but not limited to ACL TOP® family (Instrumentation Laboratory), preferably ACL TOP® 500, STA Compact® series (Stago) or the BCS® XP series (Siemens).\nas §1, with “P-50/A-50/I-180/50-S). This method is in particularly useful for detection of UFH, LMWH or hirudin. • PiCT® Method 2: P-75/A-65/I-180/35-S on the ACL TOP® 500 or P-80/A-65/I-180/40-S on the STA Compact® or P-75/A-65/I-180/S-40 on the BCS® XP. This method is in particularly useful for fondaparinux. • PiCT® Method 3: P-90/A-70/I-180/40-S on the ACL TOP® 500 or STA Compact®, or P-70/A-60/I-180/45-S on the BCS® XP. This method is in particularly useful for dabigatran or argatroban. • PiCT® Method 4: P-140/S-45/I160/A-40 on the ACL TOP® 500 or STA Compact®, or P-125/S-45/I-150/A-40 on the BCS® XP. This method is in particularly useful for rivaroxaban or apixaban.” for “P-50/A-50/I-180/50-S).”\nWith the normal PiCT®, i.e. PiCT® Method 1, wherein 50 μl of plasma is mixed with the same amount of reagent 1 (PiCT® activator), incubated for 180 sec and mixed with the same amount of reagent 2 (PiCT® start reagent) in a ACL TOP® 500 analyzer, the presence of NOACs cannot be determined in a sample. This is true even at high levels of said drugs in the sample, i.e. in the range of 300 ng/ml. Thus, in order to determine which NOAC is present in the sample, a combination of PiCT® Method 1 and PiCT® method 4 has to be used (see above for detailed description). To confirm this, spiked plasma samples with different levels of NOACs were prepared and the clotting time measured using first PiCT® Method 1 followed by PiCT® Method 4. […] In case of dabigatran present in the sample, both PiCT® Method 1 (which had to be adapted, i.e. PiCT® Method 3) and 4 are out of range as indicated in bold."}, "plasma samples [4]": {"test_system": "plasma samples", "test": "aPTT (HemosIL aPTT SP) clotting time", "settings": "Table 6, spiked plasma, mean", "method": "as §2, with “analyzer. For each drug, a specific pattern was obtained, i.e. clotting times within the RR and clotting times above the RR, depending on the used testing method, which is unique at least for the class of anticoagulant or even for a specific anticoagulant.” for “analyzer.”"}, "plasma samples [5]": {"test_system": "plasma samples", "test": "PiCT Method 1 with polybrene added, clotting time", "settings": "Table 6, spiked plasma, mean", "from_the_text": "By the addition of polybrene a distinction can be done, which of the anticoagulants is really present in the sample: if after addition of polybrene the measured clotting times are again back to RR when using the PiCT® Method 1, the sample comprises heparins, such as e.g. UFH or LMWH. Alternatively, if the result is not going back to RR, the sample comprises low concentrations of dabigatran or hirudin. […] The particular clotting times measured for the different anticoagulants are shown in Table 6, which is an example of results obtained in spiked plasma samples.\nas §2, with “analyzer. For each drug, a specific pattern was obtained, i.e. clotting times within the RR and clotting times above the RR, depending on the used testing method, which is unique at least for the class of anticoagulant or even for a specific anticoagulant.” for “analyzer.”"}},
  "data": [
    {"molecule": "COc1ccc(-n2nc(C(N)=O)c3c2C(=O)N(c2ccc(N4CCCCC4=O)cc2)CC3)cc1", "note": "[apixaban]", "values": [
      {"measurement": "Clotting time with PiCT ® Method 4", "setting": "normal plasma pool (NPP) [1]; Table 4, NPP spiked with 20 ng per ml", "result": 45, "unit": "s"},
      {"measurement": "Clotting time with PiCT ® Method 4", "setting": "normal plasma pool (NPP) [1]; Table 4, NPP spiked with 35 ng per ml", "result": 54, "unit": "s"},
      {"measurement": "Clotting time with PiCT ® Method 4", "setting": "normal plasma pool (NPP) [1]; Table 5, spiked plasma, 20 ng per ml", "result": 45, "unit": "s"},
      {"measurement": "Clotting time with PiCT ® Method 4", "setting": "normal plasma pool (NPP) [1]; Table 5, spiked plasma, 35 ng per ml", "result": 54, "unit": "s"},
      {"measurement": "Clotting time with PiCT ® Method 4", "setting": "normal plasma pool (NPP) [1]; Table 5, spiked plasma, 300 ng per ml", "result": 124.3, "unit": "s"},
      {"measurement": "Clotting time with PiCT ® Method 4", "setting": "normal plasma pool (NPP) [1]; Table 6, spiked plasma, 50 ng, mean", "result": 54.4, "unit": "s"},
      {"measurement": "Clotting time with PiCT ® Method 4", "setting": "normal plasma pool (NPP) [1]; Table 6, spiked plasma, 200 ng, mean", "result": 151.0, "unit": "s"},
      {"measurement": "Clotting time", "setting": "normal plasma pool (NPP) [1]; 5 ng/ml", "result": 65, "unit": "s"},
      {"measurement": "Clotting time", "setting": "normal plasma pool (NPP) [1]; 10 ng/ml", "result": 74, "unit": "s"},
      {"measurement": "Clotting time", "setting": "normal plasma pool (NPP) [1]; 50 ng/ml", "result": 109, "unit": "s"},
      {"measurement": "Clotting time", "setting": "normal plasma pool (NPP) [1]; 100 ng/ml", "result": 136, "unit": "s"},
      {"measurement": "Clotting time", "setting": "normal plasma pool (NPP) [1]; 200 ng/ml", "result": 167, "unit": "s"},
      {"measurement": "Clotting time", "setting": "normal plasma pool (NPP) [1]; 500 ng/ml", "result": 233, "unit": "s"},
      {"measurement": "PiCT ® method 4 clotting time", "setting": "normal plasma pool (NPP) [1]; spiked plasma, 20 ng/mL (wash off level)", "result": "45 sec (n = 3)"},
      {"measurement": "PiCT ® method 4 clotting time", "setting": "normal plasma pool (NPP) [1]; spiked plasma, 35 ng/mL (wash off level)", "result": "54 sec (n = 3)"},
      {"measurement": "Clotting time with PT", "setting": "plasma samples [2]; 50 ng", "result": 11.2, "unit": "s"},
      {"measurement": "Clotting time with PiCT ® Method 1", "setting": "normal plasma pool (NPP) [3]; Table 5, 20 ng per ml (title: Method 3 for dabigatran)", "result": 18, "unit": "s"},
      {"measurement": "Clotting time with PiCT ® Method 1", "setting": "normal plasma pool (NPP) [3]; Table 5, 35 ng per ml (title: Method 3 for dabigatran)", "result": 18, "unit": "s"},
      {"measurement": "Clotting time with PiCT ® Method 1", "setting": "normal plasma pool (NPP) [3]; Table 5, 300 ng per ml (title: Method 3 for dabigatran)", "result": 24.9, "unit": "s"},
      {"measurement": "Clotting time with PiCT ® Method 1", "setting": "normal plasma pool (NPP) [3]; Table 6, 50 ng, mean", "result": 18.9, "unit": "s"},
      {"measurement": "Clotting time with PiCT ® Method 1", "setting": "normal plasma pool (NPP) [3]; Table 6, 200 ng, mean", "result": 22.3, "unit": "s"},
      {"measurement": "Clotting time with aPTT", "setting": "plasma samples [4]; 50 ng", "result": 31.0, "unit": "s"},
      {"measurement": "Clotting time with aPTT", "setting": "plasma samples [4]; 200 ng", "result": 36.4, "unit": "s"}
    ]},
    {"molecule": "lepirudin [hirudin]", "values": [
      {"measurement": "Clotting time with PiCT ® Method 4", "setting": "normal plasma pool (NPP) [1]; Table 4, NPP spiked with 0.4 μg per ml", "result": 300, "unit": "s"},
      {"measurement": "Clotting time with PiCT ® Method 4", "setting": "normal plasma pool (NPP) [1]; Table 6, spiked plasma, 0.4 μg, mean", "result": 300.0, "unit": "s"},
      {"measurement": "Clotting time with PiCT ® Method 4", "setting": "normal plasma pool (NPP) [1]; Table 6, spiked plasma, 2.5 μg, mean", "result": 300.0, "unit": "s"},
      {"measurement": "Clotting time with PT", "setting": "plasma samples [2]; 0.4 μg", "result": 11.8, "unit": "s"},
      {"measurement": "Clotting time with PT", "setting": "plasma samples [2]; 2.5 μg", "result": 14.6, "unit": "s"},
      {"measurement": "Clotting time with PiCT ® Method 1 + polybrene", "setting": "plasma samples [5]; 0.4 μg", "result": 89.5, "unit": "s"},
      {"measurement": "Clotting time with PiCT ® Method 1 + polybrene", "setting": "plasma samples [5]; 2.5 μg", "result": 258.0, "unit": "s"},
      {"measurement": "Clotting time with PiCT ® Method 1", "setting": "normal plasma pool (NPP) [3]; Table 6, 0.4 μg, mean", "result": 88.9, "unit": "s"},
      {"measurement": "Clotting time with PiCT ® Method 1", "setting": "normal plasma pool (NPP) [3]; Table 6, 2.5 μg, mean", "result": 264.5, "unit": "s"},
      {"measurement": "Clotting time", "setting": "normal plasma pool (NPP) [3]; 0.2 μg/ml", "result": 41, "unit": "s"},
      {"measurement": "Clotting time", "setting": "normal plasma pool (NPP) [3]; 0.4 μg/ml", "result": 55, "unit": "s"},
      {"measurement": "Clotting time", "setting": "normal plasma pool (NPP) [3]; 0.6 μg/ml", "result": 69, "unit": "s"},
      {"measurement": "Clotting time", "setting": "normal plasma pool (NPP) [3]; 0.9 μg/ml", "result": 86, "unit": "s"},
      {"measurement": "Clotting time", "setting": "normal plasma pool (NPP) [3]; 1.3 μg/ml", "result": 113, "unit": "s"},
      {"measurement": "Clotting time", "setting": "normal plasma pool (NPP) [3]; 1.7 μg/ml", "result": 142, "unit": "s"},
      {"measurement": "Clotting time", "setting": "normal plasma pool (NPP) [3]; 2.0 μg/ml", "result": 158, "unit": "s"},
      {"measurement": "Clotting time", "setting": "normal plasma pool (NPP) [3]; 2.4 μg/ml", "result": 183, "unit": "s"},
      {"measurement": "Clotting time", "setting": "normal plasma pool (NPP) [3]; 2.8 μg/ml", "result": 209, "unit": "s"},
      {"measurement": "Clotting time", "setting": "normal plasma pool (NPP) [3]; 3.0 μg/ml", "result": 219, "unit": "s"},
      {"measurement": "Clotting time with aPTT", "setting": "plasma samples [4]; 0.4 μg", "result": 60.6, "unit": "s"},
      {"measurement": "Clotting time with aPTT", "setting": "plasma samples [4]; 2.5 μg", "result": 108.8, "unit": "s"}
    ]}
  ]
}
